Laboratory results as given in US20090118331A1, “Use of Lobeline Epimers in the Treatment of Central Nervous System Diseases, Pathologies, and Drug Abuse” (priority 2007, published 2009).
Several values for one entry are separate records, joined by “and”; a condition that tells them apart may be missing. Identical values can stand only once.

Legend:
[1] = Lobeline conversion to epimer in deionized water (HPLC); format: physicochemical; details: fresh deionized water or water allowed to absorb atmospheric carbon dioxide for up to 8 hours; 2 hour time course
Description: Extensive in vitro studies on the epimerization of lobeline were conducted in a variety of aqueous media. […] The concentration of the lobeline solution (500 mL) was ca. 0.5 mg/mL, and 1.5 mL aliquot parts were removed in triplicate at each time point and analyzed by HPLC. Corresponding pH measurements were performed with a Coming Model 240 pH meter.

[2] = Lobeline conversion to epimer in the buffer system used at 37° C. in the VMAT2 uptake study (HPLC); format: physicochemical; details: for Lobeline %: VMAT2 uptake buffer, 37° C.
[3] = Lobeline conversion to epimer in the HEPES buffer system used at 25° C. in the [^3H]DTBZ binding study (HPLC); format: physicochemical; details: for Lobeline %: [^3H]DTBZ binding buffer, 25° C.
Description: The initial dissolution of lobeline in water was followed by a 1:1 dilution of this stock solution in the appropriate HEPES buffer system, incubation at the prescribed temperature, and HPLC assay of each epimer and potential degradants over 2 hour incubation.
After 2 hours, the 25° C.

[4] = Pharmacokinetics of lobeline and epimer in human subjects after sublingual lobeline administration (7.5, 15, 30 mg); details: for AUCext (percent of AUC(0-∞) determined by extrapolation) / Tlast (time of last measurable plasma concentration) / λz (terminal exponential rate constant): lobeline in plasma; for AUCext (percent of AUC(0-∞) determined by extrapolation) / Tlast (time of last measurable plasma concentration) / λz (terminal exponential rate constant) / CL/F (extravascular clearance): individual human subjects; for CL/F (extravascular clearance): lobeline
Source text: The pharmacokinetics of lobeline and lobeline epimer were examined in eight human subjects (Sub) after sublingual lobeline administration.

[5] = sublingual lobeline 30.0 mg, listed as lobeline

SMILES: CN1[C@@H](CC(=O)c2ccccc2)CCC[C@H]1C[C@H](O)c1ccccc1 [Lobeline, 2-[6S-(2S-hydroxy-2-phenyl-ethyl)-1-methyl-piperidin-2R-yl]-1-phenyl-ethanone]
- conversion of lobeline to lobeline epimer [1]: ca. 1%
- component content of solution ([2]; 37° C. uptake buffer with ATP-Mg2+ cofactor reduced from 2 mM to 0.4 mM, after 2 hours, with impurity): 66%
- final component concentration (as a function of the area under the curve) ([2]; VMAT2 uptake buffer (HEPES), 2 hour incubation at 37° C.): 69%
- Lobeline % ([2]; T0, sample age 0:01): 98.2%
- Lobeline % ([2]; T5, sample age 0:05): 96.7%
- Lobeline % ([2]; T10, sample age 0:10): 94.4%
- Lobeline % ([2]; T15, sample age 0:15): 91.2%
- Lobeline % ([2]; T25, sample age 0:25): 86.5%
- Lobeline % ([2]; T30, sample age 0:30): 84.7%
- Lobeline % ([2]; T35, sample age 0:35): 83.4%
- Lobeline % ([2]; T40, sample age 0:40): 81.8%
- Lobeline % ([2]; T45, sample age 0:45): 80.6%
- Lobeline % ([2]; T50, sample age 0:50): 79.3%
- Lobeline % ([2]; T55, sample age 0:55): 78.5%
- Lobeline % ([2]; T60, sample age 1:00): 77.2%
- Lobeline % ([2]; T70, sample age 1:10): 75.0%
- Lobeline % ([2]; T80, sample age 1:20): 73.1%
- Lobeline % ([2]; T90, sample age 1:31): 72.2%
- Lobeline % ([2]; T100, sample age 1:40): 71.1%
- Lobeline % ([2]; T110, sample age 1:50): 69.6%
- Lobeline % ([2]; T120, sample age 2:00): 68.5%
- final component concentration (as a function of the area under the curve) ([3]; HEPES [^3H]DTBZ binding buffer, after 2 hours at 25° C.): 83%
- Lobeline % ([3]; T0, sample age 0:01): 98.5%
- Lobeline % ([3]; T5, sample age 0:06): 97.8%
- Lobeline % ([3]; T10, sample age 0:10): 96.7%
- Lobeline % ([3]; T15, sample age 0:15): 95.5%
- Lobeline % ([3]; T20, sample age 0:20): 94.7%
- Lobeline % ([3]; T25, sample age 0:25): 94.1%
- Lobeline % ([3]; T30, sample age 0:31): 92.8%
- Lobeline % ([3]; T35, sample age 0:35): 92.7%
- Lobeline % ([3]; T40, sample age 0:40): 91.3%
- Lobeline % ([3]; T45, sample age 0:45): 90.7%
- Lobeline % ([3]; T50, sample age 0:50): 90.1%
- Lobeline % ([3]; T55, sample age 0:55): 89.9%
- Lobeline % ([3]; T60, sample age 1:00): 89.1%
- Lobeline % ([3]; T70, sample age 1:10): 87.8%
- Lobeline % ([3]; T80, sample age 1:20): 86.6%
- Lobeline % ([3]; T90, sample age 1:31): 85.5%
- Lobeline % ([3]; T100, sample age 1:40): 84.5%
- Lobeline % ([3]; T110, sample age 1:50): 83.5%
- Lobeline % ([3]; T120, sample age 2:01): 82.7%
- dose linearity of Cmax and CL/F ([4]; dose range from 7.5 to 30 mg, sublingual, human): Linear kinetics
- Combined urinary excretion of lobeline and epimer ([4]; human, in vivo): ≤ 0.5%
- AUC(0-inf) ([4]; human, in vivo, 30 mg): 8.02 ng·h/mL
- half-life ([4]; human, in vivo, 30 mg, Terminal exponential phase half-life (T1/2), average): ~144 min
- half-life ([4]; human, in vivo, 30 mg, Terminal exponential phase half-lives (T1/2 values), range): 60 to 300 min
- Tmax ([4]; human, in vivo, 30 mg, Tmax values, range): 0.25 to 3 h
- Tmax ([4]; human, in vivo, 30 mg, Tmax, average): 1.4 h
- half-life ([4]; human, in vivo, mean T1/2 values, human subjects, sublingual lobeline): ~120 min
- equilibrium ratio of lobeline to epimer ([4]; humans): 1 to 10
- AUCext (percent of AUC(0-∞) determined by extrapolation) ([4]; sublingual lobeline 7.50 mg): 39.3% and 21.5% and 38.5% and 19.2% and 18.0% and 12.3% and 13.6% and 29.5%
- Tlast (time of last measurable plasma concentration) ([4]; sublingual lobeline 7.50 mg): 3.03 hr and 4.00 hr (3×) and 4.05 hr and 6.00 hr (2×) and 12.00 hr
- λz (terminal exponential rate constant) ([4]; sublingual lobeline 7.50 mg): 0.401 h⁻¹ and 0.403 h⁻¹ and 0.195 h⁻¹ and 0.295 h⁻¹ and 0.277 h⁻¹ and 0.183 h⁻¹ and 0.555 h⁻¹ and 0.367 h⁻¹
- AUCext (percent of AUC(0-∞) determined by extrapolation) ([4]; sublingual lobeline 15.0 mg): 16.1% and 14.1% and 6.24% and 6.52% and 14.5% and 12.7% and 18.7% and 18.1%
- Tlast (time of last measurable plasma concentration) ([4]; sublingual lobeline 15.0 mg): 4.17 hr and 4.00 hr and 6.00 hr (3×) and 8.00 hr (2×) and 11.00 hr
- λz (terminal exponential rate constant) ([4]; sublingual lobeline 15.0 mg): 0.513 h⁻¹ and 0.544 h⁻¹ and 0.573 h⁻¹ and 0.341 h⁻¹ and 0.322 h⁻¹ and 0.206 h⁻¹ and 0.185 h⁻¹ and 0.321 h⁻¹
- Tlast (time of last measurable plasma concentration) ([4]; sublingual lobeline 30.0 mg): 8.02 h
- AUCext (percent of AUC(0-∞) determined by extrapolation) [4, 5]: 7.44% and 6.59% and 5.81% and 5.16% and 20.3% and 3.50% and 8.86% and 5.87%
- Tlast (time of last measurable plasma concentration) [4, 5]: 4.00 h and 6.05 h and 12.17 h and 8.03 h and 22.75 h and 6.00 h and 8.00 h
- λz (terminal exponential rate constant) [4, 5]: 0.878 h⁻¹ and 0.469 h⁻¹ and 0.314 h⁻¹ and 0.254 h⁻¹ and 0.149 h⁻¹ and 0.151 h⁻¹ and 0.376 h⁻¹ and 0.380 h⁻¹
- CL/F (extravascular clearance) ([4]; sublingual lobeline 7.50 mg): 2328 mL/min/kg and 844 mL/min/kg and 1116 mL/min/kg and 623 mL/min/kg and 792 mL/min/kg and 179 mL/min/kg and 1502 mL/min/kg and 1051 mL/min/kg
- CL/F (extravascular clearance) ([4]; sublingual lobeline 15.0 mg): 1995 mL/min/kg and 866 mL/min/kg and 1364 mL/min/kg and 550 mL/min/kg and 1183 mL/min/kg and 188 mL/min/kg and 1194 mL/min/kg and 1068 mL/min/kg
- CL/F (extravascular clearance) ([4]; sublingual lobeline 30.0 mg): 1809 mL/min/kg and 1169 mL/min/kg and 1269 mL/min/kg and 572 mL/min/kg and 1736 mL/min/kg and 162 mL/min/kg and 2340 mL/min/kg and 857 mL/min/kg
